Here are results for 19 compounds from patent US7446199B2, “Compositions useful as inhibitors of protein kinases” (Vertex Pharmaceuticals Incorporated, priority 2003, dated 2008).

In general, Ki refers to the equilibrium dissociation constant of an inhibitor or competing ligand from its target.

The target in one test is T1, FLT-3 (Homo sapiens, UniProt P36888).
T1 construct: 0.02% BSA and 3 nM FLT-3
T1 sequence (P36888 27-993): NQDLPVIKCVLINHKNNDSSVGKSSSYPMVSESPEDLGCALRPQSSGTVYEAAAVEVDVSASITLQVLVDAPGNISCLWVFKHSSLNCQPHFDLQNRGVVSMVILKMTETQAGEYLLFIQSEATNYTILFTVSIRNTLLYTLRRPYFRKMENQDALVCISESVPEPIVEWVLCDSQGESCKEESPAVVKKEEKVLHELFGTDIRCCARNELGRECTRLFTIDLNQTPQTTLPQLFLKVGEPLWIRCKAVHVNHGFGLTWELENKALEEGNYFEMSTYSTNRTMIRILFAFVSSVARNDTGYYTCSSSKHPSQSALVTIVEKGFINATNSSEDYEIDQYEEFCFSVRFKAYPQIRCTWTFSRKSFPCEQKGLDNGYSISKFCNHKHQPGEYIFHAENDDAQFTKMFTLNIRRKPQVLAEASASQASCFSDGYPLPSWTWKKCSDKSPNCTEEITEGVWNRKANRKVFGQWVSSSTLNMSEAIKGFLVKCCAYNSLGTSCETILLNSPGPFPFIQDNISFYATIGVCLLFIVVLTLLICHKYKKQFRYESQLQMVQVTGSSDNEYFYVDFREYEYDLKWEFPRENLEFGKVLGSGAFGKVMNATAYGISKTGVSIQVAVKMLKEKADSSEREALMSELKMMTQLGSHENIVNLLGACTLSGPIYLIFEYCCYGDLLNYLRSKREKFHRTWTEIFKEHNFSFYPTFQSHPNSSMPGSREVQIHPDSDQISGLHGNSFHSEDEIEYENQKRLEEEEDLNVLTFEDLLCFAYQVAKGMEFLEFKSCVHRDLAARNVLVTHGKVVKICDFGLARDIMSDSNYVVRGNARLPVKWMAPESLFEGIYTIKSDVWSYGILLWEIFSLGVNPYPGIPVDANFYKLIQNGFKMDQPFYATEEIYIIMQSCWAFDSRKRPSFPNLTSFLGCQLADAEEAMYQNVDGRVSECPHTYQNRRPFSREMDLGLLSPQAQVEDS
Briefly: Inhibition of FLT-3, radiometric filter-binding assay. It is filed as biochemical. To be noted: 90 μM ATP, 0.5 mg/mL pE4Y, room temperature. Put shortly:
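Radiometric filter-binding assay of FLT-3 (3 nM in Solution 2; final conc not stated) phosphorylating poly(Glu,Tyr) 4:1 (0.5 mg/mL) with 90 μM ATP plus [γ-33P]ATP, in HEPES pH 7.5, MgCl2, NaCl, DTT, BSA, 2.5% DMSO. 12-point titration, typically 0.01–5 μM, 20 min at room temperature; TCA-stopped, filtered, scintillation-counted; IC50 or Ki fitted.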

In the next test the target is KDR (Homo sapiens, UniProt P35968). Briefly: KDR enzyme assay, coupled enzyme assay. Format: biochemical. To be noted: 300 μM ATP, 10 μM poly E4Y, 30 nM KDR, 37° C. Put shortly: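 Coupled enzyme (PK/LDH, NADH) assay with 30 nM KDR in 200 mM HEPES 7.5, 10 mM MgCl2, 25 mM NaCl, 1 mM DTT, 1.5% DMSO; 300 μM ATP, 10 μM poly E4Y. Compound at 30 μM final, preincubated ~10 min at 37 °C before ATP start; rates read over 5 min at 37 °C.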
KDR, sequence (P35968 20-1356): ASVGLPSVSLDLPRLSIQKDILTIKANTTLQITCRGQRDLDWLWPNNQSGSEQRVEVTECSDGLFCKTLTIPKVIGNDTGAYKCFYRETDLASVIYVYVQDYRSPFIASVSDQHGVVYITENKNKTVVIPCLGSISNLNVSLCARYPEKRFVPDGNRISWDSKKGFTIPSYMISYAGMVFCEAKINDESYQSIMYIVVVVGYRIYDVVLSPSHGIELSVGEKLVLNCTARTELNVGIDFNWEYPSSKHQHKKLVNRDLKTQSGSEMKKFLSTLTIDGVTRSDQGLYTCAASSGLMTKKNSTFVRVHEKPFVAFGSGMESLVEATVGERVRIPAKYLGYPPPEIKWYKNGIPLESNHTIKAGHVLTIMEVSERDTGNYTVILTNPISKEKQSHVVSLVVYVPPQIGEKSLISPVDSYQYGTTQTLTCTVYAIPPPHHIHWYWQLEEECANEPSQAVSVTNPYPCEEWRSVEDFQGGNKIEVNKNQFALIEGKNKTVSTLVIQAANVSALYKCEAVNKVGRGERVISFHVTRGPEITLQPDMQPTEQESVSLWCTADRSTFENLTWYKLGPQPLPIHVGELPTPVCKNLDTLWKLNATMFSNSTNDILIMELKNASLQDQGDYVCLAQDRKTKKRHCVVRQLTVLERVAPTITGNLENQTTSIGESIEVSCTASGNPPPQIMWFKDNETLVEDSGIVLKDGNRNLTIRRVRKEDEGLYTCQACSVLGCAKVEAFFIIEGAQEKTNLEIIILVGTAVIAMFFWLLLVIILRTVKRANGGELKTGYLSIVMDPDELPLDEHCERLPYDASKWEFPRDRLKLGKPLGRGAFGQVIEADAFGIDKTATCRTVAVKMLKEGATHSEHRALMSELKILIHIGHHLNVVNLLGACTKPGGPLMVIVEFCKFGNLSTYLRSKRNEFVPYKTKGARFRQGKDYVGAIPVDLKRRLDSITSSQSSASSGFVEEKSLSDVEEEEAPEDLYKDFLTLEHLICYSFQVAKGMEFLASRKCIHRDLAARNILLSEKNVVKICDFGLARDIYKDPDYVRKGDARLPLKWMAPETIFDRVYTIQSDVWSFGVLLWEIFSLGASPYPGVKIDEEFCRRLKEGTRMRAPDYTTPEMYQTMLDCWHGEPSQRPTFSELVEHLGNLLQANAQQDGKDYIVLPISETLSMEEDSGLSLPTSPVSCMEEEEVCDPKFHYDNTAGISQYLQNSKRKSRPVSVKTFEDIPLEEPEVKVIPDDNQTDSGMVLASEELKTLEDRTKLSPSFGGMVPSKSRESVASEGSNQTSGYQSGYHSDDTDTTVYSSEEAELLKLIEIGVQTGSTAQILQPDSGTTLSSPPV

Consider `Fc1cccc(-c2cnoc2-c2c[nH]c3ncc(CCn4cncn4)cc23)c1F` [Compound 132, 3-[4-(2,3-Difluoro-phenyl)-isoxazol-5-yl]-5-(2-[1,2,4]triazol-1-yl-ethyl)-1H-pyrrolo[2,3-b]pyridine], for which the Ki lay in the range of 200 to 1000 nM on FLT-3 and 1000 to 12500 nM at KDR. For `C[N+]1(C)CCN(c2ccc(-c3cnc4[nH]cc(-c5oncc5-c5cccc(F)c5F)c4c3)cc2)CC1` [Compound 155] the same measures were below 200 nM and below 200 nM.

On FLT-3, `Fc1cccc(-c2cnoc2-c2c[nH]c3ccc(-c4ccncc4)cc23)c1F` [Compound 34, 3-[4-(2,3-Difluoro-phenyl)-isoxazol-5-yl]-5-pyridin-4-yl-1H-indole] gave a Ki of 1000 to 12500 nM. For `O=C(c1cnc2[nH]cc(-c3oncc3-c3cccc(F)c3F)c2c1)N1CCCC1` [Compound 104, {3-[4-(2,3-Difluoro-phenyl)-isoxazol-5-yl]-1H-pyrrolo[2,3-b]pyridin-5-yl}-pyrrolidin-1-yl-methanone], the figures for the Ki on FLT-3 and on KDR were 1000 to 12500 nM and 200 to 1000 nM, respectively. Taken in the same sequence, the figures for `Fc1cccc(-c2cnoc2-c2c[nH]c3ncc(Cl)cc23)c1F` [Compound 44, 3-[4-(2,3-Difluoro-phenyl)-isoxazol-5-yl]-5-chloro-1H-pyrrolo[2,3-b]pyridine] were 1000 to 12500 nM and 200 to 1000 nM. Compound `COc1cnc2[nH]cc(-c3nncn3-c3cccc(F)c3F)c2c1` [Compound 108, 3-[4-(2,3-Difluoro-phenyl)-4H-[1,2,4]triazol-3-yl]-5-methoxy-1H-pyrrolo[2,3-b]pyridine] registered an inhibition constant (Ki) on FLT-3 of 1000 to 12500 nM. In the case of `CN1CCN(C(=O)[C@H]2C[C@@H]2c2cnc3[nH]cc(-c4oncc4-c4cccc(F)c4F)c3c2)CC1` (relative stereo) [Compound 142, trans-(2-{3-[4-(2,3-Difluoro-phenyl)-isoxazol-5-yl]-1H-pyrrolo[2,3-b]pyridin-5-yl}-cyclopropyl)-(4-methyl-piperazin-1-yl)-methanone], the inhibition constant Ki at FLT-3 is below 200 nM; at KDR, 200 to 1000 nM. As for `c1ccc(-c2cnoc2-c2c[nH]c3ncccc23)cc1` [Compound 35, 3-[4-Phenyl-isoxazol-5-yl]-1H-pyrrolo[2,3-b]pyridine], the Ki at KDR lay in the range of 200 to 1000 nM. For the compound `Fc1cccc(-n2cnnc2-c2c[nH]c3ncc(-c4ccc(N5CCNCC5)nc4)cc23)c1F` [Compound 111, 3-[4-(2,3-Difluoro-phenyl)-4H-[1,2,4]triazol-3-yl]-5-(6-piperazin-1-yl-pyridin-3-yl)-1H-pyrrolo[2,3-b]pyridine], the Ki on FLT-3 and at KDR was 1000 to 12500 nM each time.

Take `Fc1cnc2[nH]cc(-c3oncc3-c3cccc(F)c3F)c2c1` [Compound 45, 3-[4-(2,3-Difluoro-phenyl)-isoxazol-5-yl]-5-fluoro-1H-pyrrolo[2,3-b]pyridine]: the Ki on FLT-3 fell in the range of 1000 to 12500 nM; at KDR it was 200 to 1000 nM. As to `Fc1cccc(-c2cnoc2-c2c[nH]c3nc(Cl)c(-c4ccncc4)cc23)c1F` [Compound 103, 6-Chloro-3-[4-(2,3-difluoro-phenyl)-isoxazol-5-yl]-5-pyridin-4-yl-1H-pyrrolo[2,3-b]pyridine], at FLT-3, the Ki lay in the range of 200 to 1000 nM.

`Fc1cccc(-c2cnoc2-c2n[nH]c3ncccc23)c1F` [Compound 31, 3-(4-(2,3-difluorophenyl)isoxazol-5-yl)-1H-pyrazolo[3,4-b]pyridine]: the Ki at FLT-3 and on KDR was 1000 to 12500 nM throughout. For the compound `OB(O)c1cnc2[nH]cc(-c3oncc3-c3cccc(F)c3F)c2c1` [Compound 154], the Ki at FLT-3 is 200 to 1000 nM; at KDR, below 200 nM. `Fc1cc(F)c(F)c(-c2cnoc2-c2c[nH]c3ncccc23)c1` [Compound 39, 3-[4-(2,3,5-Trifluoro-phenyl)-isoxazol-5-yl]-1H-pyrrolo [2,3-b]pyridine]: the Ki at FLT-3 and at KDR was 1000 to 12500 nM throughout.

For `Cc1cnc2[nH]cc(-c3oncc3-c3cccc(F)c3F)c2c1` [Compound 46, 3-[4-(2,3-Difluoro-phenyl)-isoxazol-5-yl]-5-methyl-1H-pyrrolo[2,3-b]pyridine], the Ki on FLT-3 and at KDR was 200 to 1000 nM each time. Consider `CN(C)C1CCC(c2cnc3[nH]cc(-c4oncc4-c4cccc(F)c4F)c3c2)CC1` (stereo not shown) [Compound 141, (4-{3-[4-(2,3-Difluoro-phenyl)-isoxazol-5-yl]-1H-pyrrolo[2,3-b]pyridin-5-yl}-cyclohexyl)-dimethylamine], for which the inhibition constant Ki on FLT-3 lay in the range of 200 to 1000 nM; at KDR, 1000 to 12500 nM. Consider `NC(=O)c1ccc(-c2cnc3[nH]cc(-c4oncc4-c4cccc(F)c4F)c3c2)cc1` [Compound 153], for which the Ki on FLT-3 is below 200 nM; on KDR, 200 to 1000 nM.

With `OCc1cnc2[nH]cc(-c3oncc3-c3cccc(F)c3F)c2c1` [Compound 55, {3-[4-(2,3-Difluoro-phenyl)-isoxazol-5-yl]-1H-pyrrolo[2,3-b]pyridin-5-yl}-methanol], the Ki is 1000 to 12500 nM on FLT-3 and 200 to 1000 nM on KDR. Taken in the same sequence, the figures for `Fc1ccc(F)c(-c2cnoc2-c2c[nH]c3ncccc23)c1F` [Compound 41, 3-[4-(2,3,6-Trifluoro-phenyl)-isoxazol-5-yl]-1H-pyrrolo [2,3-b]pyridine] were 1000 to 12500 nM and 1000 to 12500 nM.
